Test results taken from US7531500B2, “Preventing airway mucus production by administration of EGF-R antagonists” (The Regents of the University of California, priority 1998, dated 2009).

Tested on: NCI-H292 cells
Experiment: Alcian blue/PAS staining of NCI-H292 cells for mucin glycoproteins
Type: cell-based, human
Conditions: TNFα 20 ng/ml; EGF, TGFα each 25 ng/ml
Protocol: Cell culture. A human pulmonary mucoepidermoid carcinoma cell line, NCI-H292 cells, were grown in RPMI11640 medium containing 10% fetal bovine serum, penicillin (100 U/ml), streptomycin (100 μg/ml) at 37° C. in a humidified 5% CO2 water-jacketed incubator. […] In inhibition studies with an EGF-R tyrosine kinase inhibitor, BIBX1522 (10 μg/ml, generously provided by Boehringer Ingelheim Inc., Ingelheim, Germany), cells were pretreated with BIBX1522 30 min before adding growth factors. After incubation, cells grown in a T-75 flask were used for total RNA extraction or protein extraction, and 8-chamber slides were used for Alcian blue/PAS-staining to visualize mucins.

TGFα: transforming growth factor alpha, EGF-R ligand (recombinant human; rat synthetic in vivo)
PAS-positive staining on incubation with mediator: increased PAS-positive staining
